Source: publication PMC7037283, “Introduction of Mercaptoethyl at Sorafenib Pyridine-2-Amide Motif as a Potentially Effective Chain to Further get Sorafenib-PEG-DGL” (Molecules, 2020)

How the values were obtained:
[1] = test system: HepG2; experiment: MTT anti-proliferative assay, HepG2; assay type: cell-based; settings: Homo sapiens, 48 h treatment
Method: (§1) The in vitro anti-proliferation of the chemical compounds was measured by the MTT reagent. Briefly, 5 × 10^3 cells in 100 μL of medium per well were plated in 96-well plates. After being incubated for 24 h at 37 °C, the cells were treated with different concentration of tested compound or DMSO (as negative control) for 48 h. Then the medium with compound or DMSO was replaced with 200 μL of fresh medium containing 10% MTT (5 mg/mL in PBS) in each well and incubated at 37 °C for 4 h. Last, the MTT-containing medium was discarded and 150 μL of DMSO per well was added to dissolve the formazan crystals newly formed. Absorbance of each well was determined by a microplate reader (Synergy H4, Bio-Tek) at a 570 nm wavelength. The inhibition rates of proliferation were calculated with the following equation:Inhibition ratio (%) = (ODDMSO−ODcompd)/(ODDMSO−ODblank) × 100(1)
(§2) The concentration of the compounds that inhibited cell growth by 50% (IC50) was calculated using GraphPad Prism, version 6.0.

[2] = test system: Huh7; experiment: MTT anti-proliferative assay, Huh7; assay type: cell-based; settings: Homo sapiens, Huh-7, 48 h treatment
Method: as §1, §2

[3] = test system: MCF-7; experiment: MTT anti-proliferative assay, MCF-7; assay type: cell-based; settings: Homo sapiens, MCF7, 48 h treatment
Method: as §1, §2

[4] = test system: MDA-MB-231 (triple negative breast cancer); experiment: MTT anti-proliferative assay, MDA-MB-231; assay type: cell-based; settings: Homo sapiens, 48 h treatment
Method: as §1, §2

[5] = test system: Hela (human cervical carcinoma); experiment: MTT anti-proliferative assay, Hela; assay type: cell-based; settings: 48 h treatment
Method: as §1, §2

[6] = test system: A549; experiment: MTT anti-proliferative assay, A549; assay type: cell-based; settings: Homo sapiens, 48 h treatment
Method: as §1, §2

[7] = test system: mouse melanoma cell line B16F10; experiment: MTT anti-proliferative assay, B16F10; assay type: cell-based; settings: B16-F10, 48 h treatment
Method: as §1, §2

[8] = test system: HUVEC (Human Umbilical Vein Endothelial Cells); experiment: MTT anti-proliferative assay, nontumorigenesis cells HUVEC; assay type: cell-based; settings: 48 h treatment
Method: as §1, §2

[9] = test system: 293T; experiment: MTT anti-proliferative assay, nontumorigenesis cells 293T; assay type: cell-based; settings: Homo sapiens, HEK-293T, 48 h treatment
Method: as §1, §2

`O=C(Nc1ccc(Oc2ccnc(C(=O)NCCCO)c2)cc1)Nc1ccc(Cl)c(C(F)(F)F)c1` [Compound 10c, N-(3-hydroxypropyl)-4-(4-(3-(4-chloro-3-(trifluoromethyl)phenyl)ureido)phenoxy)picolinamide] showed an IC50 [1] of 90.1 µM, an IC50 [2] of 88.4 µM and an IC50 [3] of 268 µM. For the same molecule, the IC50 [4] was 330 µM, the IC50 [5] was 233 µM and the IC50 [6] was greater than 500 µM. It also gave an IC50 [7] of 449 µM, an IC50 [8] of 329 µM and an IC50 [9] of 454 µM. The melting point was 103 to 105 °C.
`CC(CO)NNC(=O)c1cc(Oc2ccc(NC(=O)Nc3ccc(Cl)c(C(F)(F)F)c3)cc2)ccn1` (stereo not shown) [Compound 15a, 1-(4-Chloro-3-(trifluoromethyl)phenyl)-3-(4-((2-(2-(1-hydroxypropan-2-yl)hydrazine-1-carbonyl)pyridin-4-yl)oxy)phenyl)urea] gave an IC50 [1] of 80.1 µM, an IC50 [2] greater than 500 µM and an IC50 [3] greater than 500 µM. The IC50 [4] was greater than 500 µM, the IC50 [5] was greater than 500 µM and the IC50 [6] was 46.2 µM. It also gave an IC50 [7] greater than 500 µM, an IC50 [8] of 320 µM and an IC50 [9] of 1580 µM. For the same molecule, the melting point was 139 to 141 °C.
With `CNC(=O)c1cc(Oc2ccc(NC(=O)Nc3ccc(Cl)c(C(F)(F)F)c3)cc2)ccn1` [Sorafenib] the IC50 [1] was 24.1 µM, the IC50 [2] was 19.5 µM and the IC50 [3] was 37.2 µM. The IC50 [4] was 12.3 µM, the IC50 [5] was 49.5 µM and the IC50 [6] was 17.4 µM. For the same molecule, the IC50 [7] was 17.3 µM, the IC50 [8] was 35.5 µM and the IC50 [9] was 16.1 µM.
Work on `O=C(Nc1ccc(Oc2ccnc(C(=O)NCCO)c2)cc1)Nc1ccc(Cl)c(C(F)(F)F)c1` [Compound 10a, N-(2-hydroxyethyl)-4-(4-(3-(4-chloro-3-(trifluoromethyl)phenyl)ureido)phenoxy)picolinamide] yielded an IC50 [1] of 70.7 µM, an IC50 [2] of 319 µM and an IC50 [3] of 471 µM. It also gave an IC50 [4] greater than 500 µM, an IC50 [5] greater than 500 µM and an IC50 [6] of 287 µM. For the same molecule, the IC50 [7] was greater than 500 µM, the IC50 [8] was 583 µM and the IC50 [9] was 643 µM. It also gave a melting point of 193 to 195 °C.
Work on `O=C(Nc1ccc(Oc2ccnc(C(=O)NCCS)c2)cc1)Nc1ccc(Cl)c(C(F)(F)F)c1` [Compound 10b, N-(2-mercaptoethyl)-4-(4-(3-(4-chloro-3-(trifluoromethyl)phenyl)ureido)phenoxy) picolinamide] yielded an IC50 [1] of 282 µM, an IC50 [2] of 58.8 µM and an IC50 [3] of 159 µM. For the same molecule, the IC50 [4] was 295 µM, the IC50 [5] was 63.7 µM and the IC50 [6] was 447 µM. For the same molecule, the IC50 [7] was greater than 500 µM, the IC50 [8] was 197 µM and the IC50 [9] was 135 µM.
In the case of `CC(CCO)NNC(=O)c1cc(Oc2ccc(NC(=O)Nc3ccc(Cl)c(C(F)(F)F)c3)cc2)ccn1` (stereo not shown) [Compound 15b, 1-(4-Chloro-3-(trifluoromethyl)phenyl)-3-(4-((2-(2-(4-hydroxybutan-2-yl)hydrazine-1-carbonyl)pyridin-4-yl)oxy)phenyl)urea], the IC50 [1] is reported as greater than 500 µM, the IC50 [2] is reported as greater than 500 µM and the IC50 [3] is reported as greater than 500 µM. For the same molecule, the IC50 [4] was greater than 500 µM, the IC50 [5] was greater than 500 µM and the IC50 [6] was greater than 500 µM. The IC50 [7] was greater than 500 µM, the IC50 [8] was 1250 µM and the IC50 [9] was 559 µM. It also gave a melting point of 89 to 92 °C.
